pEC50: −log10 of the molar value. Starred links: 1 amine or outer side, 2 acyl side, 3 side chain; linkers in the order of their positions; H or OH if unused. Residues, ends and D or L forms follow the SMILES beside them. Groups on a side chain read outwards from the residue. *: point of attachment. C20 diacid = O=C(O)CCCCCCCCCCCCCCCCCCC(=O)*; γGlu = O=C(O)[C@H](CCC(=O)[*:2])N[*:1]
Assays:
human Y2 receptor = biological target: T1, human Y2 receptor (Homo sapiens, UniProt P49146); experiment: NPY receptor functional assay (cAMP, HEK-CNG cells, ACTOne membrane potential dye); assay type: cell-based; settings: NPY2R pEC50, HEK-CNG cells; standard PYY(3-36); species (human or rat) not given
T1 sequence (P49146 1-381): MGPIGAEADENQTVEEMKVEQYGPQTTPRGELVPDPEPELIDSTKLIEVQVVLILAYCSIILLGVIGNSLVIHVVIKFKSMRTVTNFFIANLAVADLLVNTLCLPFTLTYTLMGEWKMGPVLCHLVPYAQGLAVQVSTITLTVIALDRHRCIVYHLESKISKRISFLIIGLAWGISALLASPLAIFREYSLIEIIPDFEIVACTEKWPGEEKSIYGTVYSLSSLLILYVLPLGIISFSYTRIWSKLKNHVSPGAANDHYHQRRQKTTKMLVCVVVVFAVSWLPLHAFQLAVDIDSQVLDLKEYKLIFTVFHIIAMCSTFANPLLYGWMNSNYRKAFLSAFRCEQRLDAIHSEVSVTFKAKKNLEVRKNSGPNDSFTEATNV
Description: (§1) The NPY family of G-protein coupled receptors include Y1, Y2, Y4, and Y5 in humans and rats. […] Following agonist binding, the receptor-G protein complex activates a downstream intracellular signaling cascade which leads to inhibition of adenylate cyclase and a reduction in intracellular cAMP levels.
(§2) HEK-CNG cells stably expressing the human or rat Y1, Y2, Y4 or Y5 receptors (Codex Biosolutions) were used to characterize the functional potency of peptide agonists using the ActOne™ membrane potential dye kit (Codex Biosolutions). In addition to each NPY receptor, each cell line encodes a proprietary exogenous Cyclic Nucleotide-Gated (CNG) channel (Codex Biosolutions). The channel is activated by elevated intracellular levels of cAMP, resulting in ion flux and cell membrane depolarization which can be detected with a calcium sensitive dye or fluorescent membrane potential (MP) dye. Cells were carried in growth media containing 90% DMEM, 10% FBS, 250 mcg/mL G418 and 1 mcg/mL puromycin for no more than 15 passages.
(§3) Prior to testing, cells were counted and dispensed at 14,000 cells per well (Y1, Y4 and Y5) or 28,000 cells per well (Y2) into black 384 well Poly-D-Lysine plates at 20 mcL per well. Covered plates were then incubated at room temperature for 30 minutes followed by an overnight incubation at 37° C. in 5% C02. The following day, media was removed and wells were washed once with 40 mcL Dulbecco's phosphate buffered saline. […] Ten microliters of experimental peptide or peptide standard was added in triplicate to wells and incubated for 50 minutes at room temperature in the dark. Following this incubation step, plates were read again as before (final read).
(§4) NPY receptor activation, leading to a reduction in intracellular cAMP levels, is detected as a decrease in isoproteranol induced fluorescent signal. Peptide standard and experimental values were initially transformed in excel using the formula: final read/initial read. Transformed values were then normalized to receptor specific standard values (1×10−13 M minimum and 1×10−7 M maximum) using the formula: (test value−standard minavg)/(standard maxavg−standard minavg)*100. […] Normalized data was analyzed from triplicate tests and used to estimate the EC50 for each test peptide on each receptor. Data was fit in GraphPad Prism software (v8.2.1) using a 3-parameter logistic curve model: Y=Bottom+(Top−Bottom)/(1+10^((LogEC50−X))). EC50 values were converted to pEC50 values using the formula: pEC50=−Log(EC50).

human Y5 receptor = biological target: T2, human Y5 receptor (Homo sapiens, UniProt Q15761); experiment: as above; assay type: cell-based; settings: NPY5R pEC50, HEK-CNG cells; standard NPY; species (human or rat) not given
T2 sequence (Q15761 1-445): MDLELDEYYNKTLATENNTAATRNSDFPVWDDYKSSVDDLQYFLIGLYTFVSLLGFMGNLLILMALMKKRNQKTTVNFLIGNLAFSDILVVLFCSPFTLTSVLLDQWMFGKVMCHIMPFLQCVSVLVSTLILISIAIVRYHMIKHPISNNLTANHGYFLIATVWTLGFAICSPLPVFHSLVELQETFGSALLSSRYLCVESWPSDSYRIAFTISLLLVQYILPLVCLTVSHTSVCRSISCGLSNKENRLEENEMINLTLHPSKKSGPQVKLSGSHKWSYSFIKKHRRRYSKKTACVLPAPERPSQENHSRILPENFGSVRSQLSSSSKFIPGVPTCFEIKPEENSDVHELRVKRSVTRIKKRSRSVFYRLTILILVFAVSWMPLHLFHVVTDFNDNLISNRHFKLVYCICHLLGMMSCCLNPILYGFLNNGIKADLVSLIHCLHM
Description: as §1, §2, §3, §4

Row | Compound | pEC50 (human Y2 receptor) | pEC50 (human Y5 receptor)
1 | CC(C)C[C@H](NC(=O)[C@H](CC(=O)O)NC(=O)[C@H](CCCCN)NC(=O)[C@H](Cc1ccc(O)cc1)NC(=O)[C@H](Cc1ccc(O)cc1)NC(=O)[C@H](CCCNC(=N)N)NC(=O)[C@H](CC(N)=O)NC(=O)[C@H](Cc1c[nH]c2ccccc12)NC(=O)[C@H](CCC(=O)O)NC(=O)[C@H](CCCCN)NC(=O)[C@@H]1CCCN1C(=O)[C@H](CO)NC(=O)[C@H](C)NC(=O)[C@H](CC(=O)O)NC(=O)[C@H](CCC(=O)O)NC(=O)CNC(=O)[C@@H]1CCCN1C(=O)[C@H](CCCCNC(=O)CC[C@H](NC(=O)CC[C@H](NC(=O)CCCCCCCCCCCCCCCCCC(=O)O)C(=O)O)C(=O)O)NC(=O)[C@H](CCC(=O)O)NC(=O)[C@@H]1CCCN1C(=O)[C@H](CCCCN)NC(=O)[C@@H]1CCCN1)C(=O)N[C@@H](CCCNC(=N)N)C(=O)N[C@@H](Cc1c[nH]cn1)C(=O)N[C@@H](Cc1ccc(O)cc1)C(=O)N[C@@H](CC(C)C)C(=O)N[C@@H](CC(N)=O)C(=O)N[C@@H](Cc1c[nH]c2ccccc12)C(=O)N[C@@H](CC(C)C)C(=O)N[C@H](C(=O)N[C@@H](CCCNC(=N)N)C(=O)N[C@@H](CCC(N)=O)C(=O)N[C@@H](CCCNC(=N)N)C(=O)N[C@@H](Cc1ccccc1)C(N)=O)[C@@H](C)O [Compound A36] | 10.90 | 8.70
2 | CC(C)C[C@H](NC(=O)[C@H](CC(=O)O)NC(=O)[C@H](CCCCN)NC(=O)[C@H](Cc1ccc(O)cc1)NC(=O)[C@H](Cc1ccc(O)cc1)NC(=O)[C@H](CCCNC(=N)N)NC(=O)[C@H](CC(N)=O)NC(=O)[C@H](Cc1c[nH]c2ccccc12)NC(=O)[C@H](CCC(=O)O)NC(=O)[C@H](CCCCN)NC(=O)[C@@H]1CCCN1C(=O)[C@H](CO)NC(=O)[C@H](C)NC(=O)[C@H](CC(=O)O)NC(=O)[C@H](CCCCN)NC(=O)CNC(=O)[C@@H]1CCCN1C(=O)[C@H](CCCCNC(=O)CC[C@H](NC(=O)CC[C@H](NC(=O)CCCCCCCCCCCCCCCCCCC(=O)O)C(=O)O)C(=O)O)NC(=O)[C@H](CCC(=O)O)NC(=O)[C@@H]1CCCN1C(=O)[C@H](CCCCN)NC(=O)[C@@H]1CCCN1)C(=O)N[C@@H](CCCNC(=N)N)C(=O)N[C@@H](Cc1c[nH]cn1)C(=O)N[C@@H](Cc1ccc(O)cc1)C(=O)N[C@@H](CC(C)C)C(=O)N[C@@H](CC(N)=O)C(=O)N[C@@H](Cc1c[nH]c2ccccc12)C(=O)N[C@@H](CC(C)C)C(=O)N[C@H](C(=O)N[C@@H](CCCNC(=N)N)C(=O)N[C@@H](CCC(N)=O)C(=O)N[C@@H](CCCNC(=N)N)C(=O)N[C@@H](Cc1ccccc1)C(N)=O)[C@@H](C)O [Compound A37] (H-PKPEK([γGlu-γGlu-C20 diacid])PGKDASPKEWNRYYKDLRHYLNWLTRQRF-NH2; N-terminus assumed) | 10.80 | 8.60
3 | CC(C)C[C@H](NC(=O)[C@H](CC(=O)O)NC(=O)[C@H](CCCCN)NC(=O)[C@H](Cc1ccc(O)cc1)NC(=O)[C@H](Cc1ccc(O)cc1)NC(=O)[C@H](CCCNC(=N)N)NC(=O)[C@H](CO)NC(=O)[C@H](Cc1c[nH]c2ccccc12)NC(=O)[C@H](CCC(=O)O)NC(=O)[C@H](CCC(=O)O)NC(=O)[C@@H]1CCCN1C(=O)[C@H](CO)NC(=O)[C@H](C)NC(=O)[C@H](CC(=O)O)NC(=O)[C@H](CCCCNC(=O)CC[C@H](NC(=O)CC[C@H](NC(=O)CCCCCCCCCCCCCCCCCCC(=O)O)C(=O)O)C(=O)O)NC(=O)CNC(=O)[C@@H]1CCCN1C(=O)[C@H](CCCCN)NC(=O)[C@H](CCC(=O)O)NC(=O)[C@@H]1CCCN1C(=O)[C@H](CCCCN)NC(=O)[C@@H]1CCCN1)C(=O)N[C@@H](CCCNC(=N)N)C(=O)N[C@@H](Cc1c[nH]cn1)C(=O)N[C@@H](Cc1ccc(O)cc1)C(=O)N[C@@H](CC(C)C)C(=O)N[C@@H](CC(N)=O)C(=O)N[C@@H](Cc1c[nH]c2ccccc12)C(=O)N[C@@H](CC(C)C)C(=O)N[C@H](C(=O)N[C@@H](CCCNC(=N)N)C(=O)N[C@@H](CCC(N)=O)C(=O)N[C@@H](CCCNC(=N)N)C(=O)N[C@@H](Cc1ccccc1)C(N)=O)[C@@H](C)O [Compound A75] | – | 9.30
